# Test results as given in ChEMBL document CHEMBL3044631, “Synthesis of 2-[4,5-dimethyl-1-(phenylamino)-1H-imidazol-2-ylthio]-N-(thiazole-2-yl)acetamide derivatives and their anticancer activities” (2013).
# How the values were obtained:
# Assay type in all cases: functional
# UACC-257 = experiment: Anticancer activity against Homo sapiens (human) UACC257 cells assessed as cell growth promotion at 10 uM after 48 hr by SRB assay
# SK-MEL-5 = experiment: Anticancer activity against Homo sapiens (human) SK-MEL-5 cells assessed as cell growth promotion at 10 uM after 48 hr by SRB assay
# T47D = experiment: Anticancer activity against Homo sapiens (human) T47D cells assessed as cell growth promotion at 10 uM after 48 hr by SRB assay
# BT-549 = experiment: Anticancer activity against Homo sapiens (human) BT549 cells assessed as cell growth promotion at 10 uM after 48 hr by SRB assay
# MDA-MB-231 = experiment: Anticancer activity against Homo sapiens (human) MDA-MB-231/ATCC cells assessed as cell growth promotion at 10 uM after 48 hr by SRB assay
# MCF7 = experiment: Anticancer activity against Homo sapiens (human) MCF7 cells assessed as cell growth promotion at 10 uM after 48 hr by SRB assay
# DU-145 = experiment: Anticancer activity against Homo sapiens (human) DU145 cells assessed as cell growth promotion at 10 uM after 48 hr by SRB assay
# UO-31 = experiment: Anticancer activity against Homo sapiens (human) UO31 cells assessed as cell growth promotion at 10 uM after 48 hr by SRB assay
# SN12C = experiment: Anticancer activity against Homo sapiens (human) SN12C cells assessed as cell growth promotion at 10 uM after 48 hr by SRB assay
# CAKI-1 = experiment: Anticancer activity against Homo sapiens (human) CAKI-1 cells assessed as cell growth promotion at 10 uM after 48 hr by SRB assay
# 786-0 = experiment: Anticancer activity against Homo sapiens (human) 786-0 cells assessed as cell growth promotion at 10 uM after 48 hr by SRB assay
# A498 = experiment: Anticancer activity against Homo sapiens (human) A498 cells assessed as cell growth promotion at 10 uM after 48 hr by SRB assay
# OVCAR-8 = experiment: Anticancer activity against Homo sapiens (human) OVCAR8 cells assessed as cell growth promotion at 10 uM after 48 hr by SRB assay
# OVCAR-5 = experiment: Anticancer activity against Homo sapiens (human) OVCAR5 cells assessed as cell growth promotion at 10 uM after 48 hr by SRB assay
# OVCAR-4 = experiment: Anticancer activity against Homo sapiens (human) OVCAR4 cells assessed as cell growth promotion at 10 uM after 48 hr by SRB assay
# OVCAR-3 = experiment: Anticancer activity against Homo sapiens (human) OVCAR3 cells assessed as cell growth promotion at 10 uM after 48 hr by SRB assay
# MDA-MB-468 = experiment: Anticancer activity against Homo sapiens (human) MDA-MB-468 cells assessed as cell growth promotion at 10 uM after 48 hr by SRB assay
# HCC 2998 = experiment: Anticancer activity against Homo sapiens (human) HCC2998 cells assessed as cell growth promotion at 10 uM after 48 hr by SRB assay
# NCI-H23 = experiment: Anticancer activity against Homo sapiens (human) NCI-H23 cells assessed as cell growth promotion at 10 uM after 48 hr by SRB assay
# HOP-92 = experiment: Anticancer activity against Homo sapiens (human) HOP92 cells assessed as cell growth promotion at 10 uM after 48 hr by SRB assay
# HOP-62 = experiment: Anticancer activity against Homo sapiens (human) HOP62 cells assessed as cell growth promotion at 10 uM after 48 hr by SRB assay
# EKVX = experiment: Anticancer activity against Homo sapiens (human) EKVX cells assessed as cell growth promotion at 10 uM after 48 hr by SRB assay
# A549 = experiment: Anticancer activity against Homo sapiens (human) A549/ATCC cells assessed as cell growth promotion at 10 uM after 48 hr by SRB assay
# K562 = experiment: Anticancer activity against Homo sapiens (human) K562 cells assessed as cell growth promotion at 10 uM after 48 hr by SRB assay
# HL-60(TB) = experiment: Anticancer activity against Homo sapiens (human) HL-60(TB) cells assessed as cell growth promotion at 10 uM after 48 hr by SRB assay
# SK-MEL-28 = experiment: Anticancer activity against Homo sapiens (human) SK-MEL-28 cells assessed as cell growth promotion at 10 uM after 48 hr by SRB assay
# SK-MEL-2 = experiment: Anticancer activity against Homo sapiens (human) SK-MEL-2 cells assessed as cell growth promotion at 10 uM after 48 hr by SRB assay
# MDA-MB-435 = experiment: Anticancer activity against Homo sapiens (human) MDA-MB-435 cells assessed as cell growth promotion at 10 uM after 48 hr by SRB assay
# M14 = experiment: Anticancer activity against Homo sapiens (human) M14 cells assessed as cell growth promotion at 10 uM after 48 hr by SRB assay
# Malme-3M = experiment: Anticancer activity against Homo sapiens (human) MALME-3M cells assessed as cell growth promotion at 10 uM after 48 hr by SRB assay
# LOX IMVI = experiment: Anticancer activity against Homo sapiens (human) LOXIMVI cells assessed as cell growth promotion at 10 uM after 48 hr by SRB assay
# U-251 = experiment: Anticancer activity against Homo sapiens (human) U251 cells assessed as cell growth promotion at 10 uM after 48 hr by SRB assay
# SNB-75 = experiment: Anticancer activity against Homo sapiens (human) SNB75 cells assessed as cell growth promotion at 10 uM after 48 hr by SRB assay
# SNB-19 = experiment: Anticancer activity against Homo sapiens (human) SNB19 cells assessed as cell growth promotion at 10 uM after 48 hr by SRB assay
# SF-295 = experiment: Anticancer activity against Homo sapiens (human) SF295 cells assessed as cell growth promotion at 10 uM after 48 hr by SRB assay
# SF-268 = experiment: Anticancer activity against Homo sapiens (human) SF268 cells assessed as cell growth promotion at 10 uM after 48 hr by SRB assay
# SW-620 = experiment: Anticancer activity against Homo sapiens (human) SW620 cells assessed as cell growth promotion at 10 uM after 48 hr by SRB assay
# HT-29 = experiment: Anticancer activity against Homo sapiens (human) HT-29 cells assessed as cell growth promotion at 10 uM after 48 hr by SRB assay
# KM12 = experiment: Anticancer activity against Homo sapiens (human) KM12 cells assessed as cell growth promotion at 10 uM after 48 hr by SRB assay
# NCI-H460 = experiment: Anticancer activity against Homo sapiens (human) NCI-H460 cells assessed as cell growth promotion at 10 uM after 48 hr by SRB assay
smiles,measurement,setting,value
Cc1ccc(Nn2c(SCC(=O)Nc3nc(-c4ccccc4)cs3)nc(C)c2C)cc1,Activity,UACC-257,54.08%
same,Activity,SK-MEL-5,66.75%
same,Activity,T47D,6.48%
same,Activity,BT-549,63.51%
same,Activity,MDA-MB-231,46%
same,Activity,MCF7,24.07%
same,Activity,DU-145,83.4%
same,Activity,UO-31,51.58%
same,Activity,SN12C,64.31%
same,Activity,CAKI-1,53.6%
same,Activity,786-0,82.27%
same,Activity,A498,92.54%
same,Activity,OVCAR-8,55.49%
same,Activity,OVCAR-5,81.8%
same,Activity,OVCAR-4,25.36%
same,Activity,OVCAR-3,78.47%
same,Activity,MDA-MB-468,17.71%
same,Activity,HCC 2998,91.96%
same,Activity,NCI-H23,39.38%
same,Activity,HOP-92,59.94%
same,Activity,HOP-62,67.17%
same,Activity,EKVX,49.68%
same,Activity,A549,46.29%
same,Activity,K562,37.67%
same,Activity,HL-60(TB),63.8%
same,Activity,SK-MEL-28,77.24%
same,Activity,SK-MEL-2,81.38%
same,Activity,MDA-MB-435,76.71%
same,Activity,M14,76.97%
same,Activity,Malme-3M,92.03%
same,Activity,LOX IMVI,51.93%
same,Activity,U-251,49.3%
same,Activity,SNB-75,38.33%
same,Activity,SNB-19,74.35%
same,Activity,SF-295,46.1%
same,Activity,SF-268,81.68%
same,Activity,SW-620,98.8%
same,Activity,HT-29,56.13%
same,Activity,KM12,82.85%
same,Activity,NCI-H460,78.13%
